From patent US11957324B2, “Device and method for preparing and administering one-component fibrin sealant” (Ethicon, Inc., priority 2014, dated 2024)

Experiments:
fibrin clot formation = details: CaCl2 between about 8 mM and about 30 mM; 5-fold zymogen, 3.5% (w/v) fibrinogen, tissue factor and phospholipids
Experimental: In the following experiment, the concentration range of calcium ion (CaCl2 concentration) as an inducer to accelerate fibrin clot formation in the zymogen (PPSB concentrate) and fibrinogen comprising mixture (prepared from BAC2) described in Example 1 was explored. In this Example, the zymogen mixture was prepared at a concentration of 10-fold (10 IU FII/ml), as compared to plasma, and mixed in the same volumetric ratio with the same fibrinogen solution as above (final 5-fold concentrations of zymogen, compared to plasma, and 3.5% (w/v) fibrinogen). No EDTA was used. In this experiment, initiation of clotting was performed using a calcium-depleted PT (prothrombin time) reagent comprising tissue factor and phospholipids; a clotting initiator that is typically present in bleeding/injured surfaces and on the surface of activated platelets, respectively. By using both tissue factor and phospholipids, a bleeding surface is simulated. CaCl2 at increasing concentrations was supplemented to the mixture and the clotting time was measured using a Start4 clotting analyzer (Diagnostica Stago).

fibrin [1] = biological target: T1, fibrin (Homo sapiens, UniProt P02671+P02675+P02679); assay: Rate of fibrin clot formation at different GPRP concentrations, cessation of flow upon inversion of the tube; type: biochemical; details: above molar ratio 340:1 GPRP:fibrin (40 mM GPRP at tested fibrinogen concentration)
fibrin [2] = biological target: T1, fibrin; assay: as above; type: biochemical; details: 3% fibrin, thrombin 100 IU/ml
Experimental: In the following experiment, the effect of adjusting the concentration of GPRP (SEQ ID NO: 1) inhibitor on fibrin clot formation rate was tested. GPRP (SEQ ID NO: 1) at different concentrations (0.1 mM, 0.2 mM, 0.5 mM, 1 mM, 1.5 mM, 2 mM, 3 mM, 4 mM, and 5 mM) was added to a fibrinogen containing solution (a fixed concentration of 3% w/v, prepared by diluting the BAC2 component of EVICEL® in 40 mM citrate buffer).
To generate fibrin monomers, dimers and/or oligomers, thrombin was added to the mixture; a 10% volume of the thrombin component of EVICEL® was added to yield a final concentration of 100 international units/ml (IU/ml). The rate of fibrin clot formation was measured by cessation of flow of the mixture upon inversion of the tube.

thrombin = thrombin (Homo sapiens, UniProt P00734); details: cited from earlier work

T1 sequence (P02671 36-644 isoform P02671-2 limits assumed): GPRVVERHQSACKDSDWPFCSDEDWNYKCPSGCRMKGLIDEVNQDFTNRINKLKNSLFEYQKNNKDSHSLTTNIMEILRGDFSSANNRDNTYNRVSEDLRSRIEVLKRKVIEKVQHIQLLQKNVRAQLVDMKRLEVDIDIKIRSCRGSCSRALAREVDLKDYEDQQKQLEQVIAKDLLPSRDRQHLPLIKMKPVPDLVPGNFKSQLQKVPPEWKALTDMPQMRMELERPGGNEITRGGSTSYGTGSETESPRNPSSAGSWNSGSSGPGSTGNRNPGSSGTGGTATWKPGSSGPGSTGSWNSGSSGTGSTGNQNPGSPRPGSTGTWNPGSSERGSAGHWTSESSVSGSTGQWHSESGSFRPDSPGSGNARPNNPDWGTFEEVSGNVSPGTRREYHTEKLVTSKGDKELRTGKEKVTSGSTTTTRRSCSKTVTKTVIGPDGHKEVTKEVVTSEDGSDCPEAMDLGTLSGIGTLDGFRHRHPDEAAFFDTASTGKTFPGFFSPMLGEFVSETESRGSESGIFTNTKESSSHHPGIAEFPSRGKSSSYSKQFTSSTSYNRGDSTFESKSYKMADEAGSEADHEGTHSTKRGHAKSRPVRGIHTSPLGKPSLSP
T1 sequence (P02675 45-491 limits assumed): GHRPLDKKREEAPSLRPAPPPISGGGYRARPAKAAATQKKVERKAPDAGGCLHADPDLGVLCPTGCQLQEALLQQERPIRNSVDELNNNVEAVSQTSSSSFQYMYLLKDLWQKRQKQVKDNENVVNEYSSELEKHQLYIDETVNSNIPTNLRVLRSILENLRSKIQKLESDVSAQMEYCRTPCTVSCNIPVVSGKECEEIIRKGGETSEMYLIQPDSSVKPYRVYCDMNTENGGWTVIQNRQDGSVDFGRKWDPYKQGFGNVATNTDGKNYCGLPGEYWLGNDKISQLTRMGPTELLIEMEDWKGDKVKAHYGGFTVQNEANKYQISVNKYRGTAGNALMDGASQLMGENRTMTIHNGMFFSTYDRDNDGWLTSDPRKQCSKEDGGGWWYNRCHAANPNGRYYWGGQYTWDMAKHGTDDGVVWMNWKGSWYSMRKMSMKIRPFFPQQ
T1 sequence (P02679 27-437 isoform P02679-2 limits assumed): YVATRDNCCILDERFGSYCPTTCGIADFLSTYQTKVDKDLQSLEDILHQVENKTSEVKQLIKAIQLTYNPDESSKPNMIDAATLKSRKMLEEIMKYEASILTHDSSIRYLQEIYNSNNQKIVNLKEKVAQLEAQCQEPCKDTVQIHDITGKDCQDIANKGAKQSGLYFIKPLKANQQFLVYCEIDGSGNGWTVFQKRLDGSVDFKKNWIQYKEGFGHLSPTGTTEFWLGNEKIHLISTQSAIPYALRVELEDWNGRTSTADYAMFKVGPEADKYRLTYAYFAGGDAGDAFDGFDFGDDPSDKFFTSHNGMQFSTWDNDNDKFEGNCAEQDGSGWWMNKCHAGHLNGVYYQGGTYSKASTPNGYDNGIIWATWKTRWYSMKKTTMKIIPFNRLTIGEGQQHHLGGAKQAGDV

[Ca+2].[Cl-].[Cl-] [CaCl2, calcium chloride]
clotting time (fibrin clot formation): < 20 s

Gly-Pro-Arg-Pro [GPRP]
time for which no polymerization was observed (fibrin [1]): > 14 days
Time to clot (fibrin [2]; 0.1 mM GPRP): 5 s
Time to clot (fibrin [2]; 0.2 mM GPRP): 7 s
Time to clot (fibrin [2]; 0.5 mM GPRP): 11 s
Time to clot (fibrin [2]; 1 mM GPRP): 13 s
Time to clot (fibrin [2]; 1.5 mM GPRP): 22 s
Time to clot (fibrin [2]; 2 mM GPRP): 28 s
Time to clot (fibrin [2]; 3 mM GPRP): 150 s
Time to clot (fibrin [2]; 4 mM GPRP): 480 s
Time to clot (fibrin [2]; 5 mM GPRP): 900 s

hirudin
binds thrombin (affinity) (thrombin): picoM range
